Literature values as cited in paper PMC7992119 (Structure (London, England : 1993), 2019).
Where no end group is shown, it is not given here. The star is where a group is joined. Octanoyl = CCCCCCCC(=O)*

What was measured:
[1] = tested on: GHSR; details: ref Bednarek et al., 2000
[2] = tested on: ET-B; details: mutation of known crystal contacts; ref Shihoya et al., 2016
[3] = tested on: GHSR

## des-acyl ghrelin
[1]
  activity at GHSR of des-acyl versus lipidated form: only the lipidated form is active at GHSR

## endothelin-1
[2]
  maximal decrease of binding: ≤ 10 fold

## ghrelin: 28-amino acid peptide with n-octanoylation at its Ser^3 residue (GSS(Octanoyl)FLSPEHQRVQQRKESKKPPAKLQPR; UniProt Q9UBU3 24-51, looked up)
[3]; C terminus of ghrelin (beyond residue 17), ref Bednarek et al., 2000
  affinity of the C terminus for the receptor: the C terminus has no affinity for the receptor and does not enhance ligand binding over truncated variants
[3]; qualitative statement, no reference given
  affinity to GHSR versus the membrane: much higher than to the membrane
